Patent publication US20230002327A1, “SMALL-MOLECULE REGULATOR OF TLR8” (TSINGHUA UNIVERSITY, priority 2019, published 2023)

Columns and labels:
[1] = system: peripheral blood mononuclear cells of patients suffering from rheumatoid arthritis; assay: TNF-α in PBMC of rheumatoid arthritis patients; assay type: cell-based, human; conditions: PBMC derived from rheumatoid arthritis patients (FIG. 9)
Method: Approximately 8 mL of blood was collected from untreated rheumatoid arthritis patients.
Peripheral blood mononuclear cells (PBMCs) were isolated from the whole blood derived from 6 rheumatoid arthritis patients using the lymphocyte separation medium, and the cells were seeded in a 96-well round-bottom plate at a density of 1×10^6 cells/mL immediately after the isolation (cultured in RPMI 1640 (0.25 mL/well)).
Afterwards, cells were treated with 0, 10, 20, 40 and 80 μM Compound 24, Compound 10 was used as a negative control, and cells were placed in a cell incubator (37° C., 5% CO2) for incubation.
After 24 hours, the resultant was centrifuged at 4,000 rpm/minute for 10 minutes, and then the supernatant was collected, frozen to −80° C. and used for the determination of TNF-α. Quantification was conducted using a human TNF ELISA Kit.

[2] = system: TLR1/2, TLR2/6, TLR3, TLR4 and TLR5 signaling pathways; assay: ELISA of TNF-α in TLR1/2, TLR2/6, TLR3, TLR4 or TLR5 signaling pathways in human PBMC; assay type: cell-based; conditions: human peripheral blood mononuclear cells (FIG. 4)
[3] = system: R848-induced signaling pathway in THP-1 cells; assay: ELISA of inflammatory factors in R848-treated THP-1 cells; assay type: cell-based, human
Method: THP-1 cells treated with 50 ng/mL of PMA were suspended in RPMI medium (containing 10% fetal bovine serum, penicillin (100 U/mL), streptomycin ([…]) and 0.05 mM 2-mercaptoethanol), seeded in a 12-well plate at a density of 1×10^6 cells/well and 1 mL/well, and incubated in a cell incubator (37° C., 5% CO2).
After 48 hours, suspending cells would adhere onto the surface of the 12-well plate, non-adhered cells and the medium were aspirated, and cells were washed with sterile […] buffer (3×1 mL). RPMI medium was added (1 mL/well), and R848 (1 μg/mL) and various concentrations of Compound 24 or Compound 10 (as a negative control) were further added to treat cells. Or, the same amount of peripheral blood mononuclear cells derived from healthy human were used instead of THP-1 cells for subsequent experiments.
After 24 hours, the supernatant of the medium was collected and stored in a freezer at −80° C. Cells were washed with PBS (3×1 mL), the 12-well plate was placed on ice, and then 400 μL of lysis buffer (containing protease inhibitor) was added to each well, during which the cells were pipetted every five minutes. After 20 minutes, the mixture was transferred to the corresponding 1.5-mL tube and centrifuged at 13.2K rpm and 4° C. for 20 minutes. 350 μL of the supernatant was collected into a new centrifuge tube and frozen at −80° C.
Cytokines interleukin-1β(IL-1β), interleukin-6 (IL-6) and tumor necrosis factor (TNF-α) were quantified by enzyme-linked immunosorbent assay (ELISA) according to the instructions of the kit provided by the manufacturer.

[4] = biological target: T1, TLR7 (Homo sapiens, UniProt Q9NYK1); assay: Inhibition of R848-induced signaling in HEK-Blue hTLR7 cell line (Quanti-Blue); assay type: cell-based
T1 construct: host or cells: HEK-Blue hTLR7 (HEK293-derived SEAP reporter cells)
T1 sequence (Q9NYK1 27-1049): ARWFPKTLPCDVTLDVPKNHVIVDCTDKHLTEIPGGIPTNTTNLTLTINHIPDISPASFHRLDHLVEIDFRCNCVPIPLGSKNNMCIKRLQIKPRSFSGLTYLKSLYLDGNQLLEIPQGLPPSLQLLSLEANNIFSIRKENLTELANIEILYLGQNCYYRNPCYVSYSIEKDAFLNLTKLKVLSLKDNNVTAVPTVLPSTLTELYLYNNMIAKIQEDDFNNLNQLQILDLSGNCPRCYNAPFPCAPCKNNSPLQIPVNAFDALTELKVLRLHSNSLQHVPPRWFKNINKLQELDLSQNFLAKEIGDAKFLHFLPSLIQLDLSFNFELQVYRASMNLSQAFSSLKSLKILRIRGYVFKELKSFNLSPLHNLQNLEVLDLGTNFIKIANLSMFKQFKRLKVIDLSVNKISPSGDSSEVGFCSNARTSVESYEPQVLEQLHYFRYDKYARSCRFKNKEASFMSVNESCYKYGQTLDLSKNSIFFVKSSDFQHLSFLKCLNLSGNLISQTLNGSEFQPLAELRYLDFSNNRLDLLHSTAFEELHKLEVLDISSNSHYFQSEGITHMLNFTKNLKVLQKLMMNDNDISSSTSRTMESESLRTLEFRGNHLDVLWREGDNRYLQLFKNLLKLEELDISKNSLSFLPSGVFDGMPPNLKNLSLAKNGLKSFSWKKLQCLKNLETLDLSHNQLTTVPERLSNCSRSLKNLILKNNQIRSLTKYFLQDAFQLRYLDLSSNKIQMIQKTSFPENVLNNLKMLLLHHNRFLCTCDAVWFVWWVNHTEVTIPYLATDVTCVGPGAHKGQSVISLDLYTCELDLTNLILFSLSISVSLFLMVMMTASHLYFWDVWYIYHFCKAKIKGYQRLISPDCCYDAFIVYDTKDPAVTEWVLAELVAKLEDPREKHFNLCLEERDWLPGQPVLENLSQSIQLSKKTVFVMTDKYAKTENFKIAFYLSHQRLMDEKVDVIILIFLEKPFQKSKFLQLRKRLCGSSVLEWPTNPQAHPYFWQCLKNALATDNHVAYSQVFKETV
Outline: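 HEK-Blue hTLR8 or hTLR7 cells in serum-free DMEM were co-treated for 24 h at 37 °C with compound plus 1 μg/mL R848, or 5 μg/mL ssRNA40/LyoVec or ORN06/LyoVec. SEAP in the supernatant was read with Quanti-Blue at OD620. % inhibition was taken relative to ligand-only and untreated cells, and IC50 was fitted.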

| Structure (SMILES) | inhibitory effect on inflammatory factor TNF-α [1] | inhibitory effect on TNF-α in TLR1/2, TLR2/6, TLR3, TLR4 and TLR5 signaling pathways [2] | inhibitory effect on inflammatory factor TNF-α ([3]; concentration-dependent (FIG. 5)) | inhibitory effect on inflammatory factor IL-6 ([3]; concentration-dependent (FIG. 6)) | inhibitory effect on inflammatory factor IL-1β ([3]; concentration-dependent (FIG. 7)) | TLR7 (normalized inhibitory effect on R848-induced signaling) [4] |
| --- | --- | --- | --- | --- | --- | --- |
| CSc1nnc(CCCO)n1-c1cc(C)c(C)c(C)c1 [Compound 24, 3-(5-(methylthio)-4-(3,4,5-trimethylphenyl)-4H-1,2,4-triazole-3-yl)propan-1-ol] | significant inhibitory effect | no inhibitory effect | significant inhibitory effect | significant inhibitory effect | significant inhibitory effect | – |
| CCOCc1nc(I)c(-c2ccccc2)n1CC(C)(C)O [Compound 53, 1-[2-(ethoxymethyl)-4-iodo-5-phenyl-1H-imidazole-1-yl]-2-methylpropan-2-ol] | – | – | – | – | – | 1.0 ± 0.2 |
